One molecule from article PMC7862302, “Self-assembling thermostable chimeras as new platform for arsenic biosensing” (Scientific Reports, 2021) can be followed below.

The target in one assay is T1, Vmh2-ArsC.
T1 construct: single-chain fusion: Vmh2 of Pleurotus ostreatus (N-terminal), 15-residue flexible linker, TtArsC, thrombin site LVPRGS, C-terminal His-tag; with Hydrophobin Vmh2 (Pleurotus ostreatus)
Format: binding, Thermus thermophilus. Conditions: chimera immobilised on gold; 50 mM Tris-HCl pH 7.5, 60 °C, 1 h incubation; detection in 1 M HCl; read-out: KAsIII (converted).

The target in another assay is T2, ArsC-Vmh2.
T2 construct: single-chain fusion: TtArsC (N-terminal), 15-residue flexible linker, Vmh2 of Pleurotus ostreatus, thrombin site LVPRGS, C-terminal His-tag; with Hydrophobin Vmh2 (Pleurotus ostreatus)
Format: binding, Thermus thermophilus. Conditions: chimera immobilised on gold; 50 mM Tris-HCl pH 7.5, 60 °C, 1 h incubation; detection in 1 M HCl; read-out: KAsIII (converted).

In the case of `O=[As]O` [As(III)], the Kd was 0.833 mM at Vmh2-ArsC and 1.54 mM at ArsC-Vmh2.
